Values of other authors, collected in patent publication US20050101563A1, “Method and compositions for the treatment and prevention of pain and inflammation” (Pharmacia Corporation, priority 2001, published 2005).

Key:
[1] = test system: patients with knee osteoarthritis; details: 1500 mg/day, 3 years
Cox-2 = details: enzyme inhibitory compounds of Ligustrum lucidum extracts
rats = details: orally administered; sponge implants in rats
[2] = orally administered; rats

N[C@H]1C(O)O[C@H](CO)[C@@H](O)[C@@H]1O.O=S(=O)(O)O (stereo partly drawn) [glucosamine sulfate]
joint-space loss [1]: no significant joint-space loss

CC1(C)CC[C@]2(C(=O)O)CC[C@]3(C)C(=CC[C@@H]4[C@@]5(C)CC[C@H](O)C(C)(C)[C@@H]5CC[C@]43C)[C@@H]2C1 [oleanic acid]
selectivity for the inhibition of Cox-2 versus Cox-1 (Cox-2): not substantially more selective for the inhibition of Cox-2 than for Cox-1

C[C@H]1[C@H](C)CC[C@]2(C(=O)O)CC[C@]3(C)C(=CC[C@@H]4[C@@]5(C)CC[C@H](O)C(C)(C)[C@@H]5CC[C@]43C)[C@H]12 [ursolic acid]
selectivity for the inhibition of Cox-2 versus Cox-1 (Cox-2): not substantially more selective for the inhibition of Cox-2 than for Cox-1

CC(=O)N[C@H]1C(O)O[C@H](CO)[C@@H](O)[C@@H]1O (stereo partly drawn) [N-acetylglucosamine]
IL-1-beta-mediated activation of chondrocytes (human chondrocytes): prevent IL-1-beta-mediated activation of human chondrocytes

chondroitin sulfate
granuloma formation (rats): significantly decrease granuloma formation
tissue tropism [2]: tropism for cartilagineous tissues
